Test results reported in ChEMBL document CHEMBL4138237, “Activation of anti-oxidant Nrf2 signaling by enone analogues of curcumin” (Eur J Med Chem, 2018).
Active and inactive are the calls of the source.

Legend:
[1] = biological target: T1, Nuclear factor erythroid 2-related factor 2 (Homo sapiens) (UniProt Q16236); assay: Activation of Nrf2 (unknown origin) expressed in human HepG2 cells at 15 uM after 5 hrs by ARE-driven luciferase reporter gene assay relative to control; assay type: cell-based
T1 sequence (whole entry): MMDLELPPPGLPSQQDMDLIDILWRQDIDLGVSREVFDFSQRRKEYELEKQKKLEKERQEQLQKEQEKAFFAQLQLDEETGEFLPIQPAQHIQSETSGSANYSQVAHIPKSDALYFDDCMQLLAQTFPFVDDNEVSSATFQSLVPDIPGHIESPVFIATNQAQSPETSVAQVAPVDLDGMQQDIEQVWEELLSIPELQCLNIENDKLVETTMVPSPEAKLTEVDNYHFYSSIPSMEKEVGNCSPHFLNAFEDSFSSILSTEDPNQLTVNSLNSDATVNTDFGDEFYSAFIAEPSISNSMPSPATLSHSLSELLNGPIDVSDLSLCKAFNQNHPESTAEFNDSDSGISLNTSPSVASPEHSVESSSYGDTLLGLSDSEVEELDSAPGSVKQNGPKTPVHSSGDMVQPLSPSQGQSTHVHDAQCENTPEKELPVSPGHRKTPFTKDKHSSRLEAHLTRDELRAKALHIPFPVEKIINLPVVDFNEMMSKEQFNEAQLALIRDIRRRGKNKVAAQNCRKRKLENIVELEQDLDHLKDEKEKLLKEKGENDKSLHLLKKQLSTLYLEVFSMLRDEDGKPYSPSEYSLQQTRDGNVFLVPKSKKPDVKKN

[2] = biological target: Luciferin 4-monooxygenase (Photinus pyralis, UniProt P08659); assay: Effect on firefly luciferase activity expressed in human HepG2 cells at low concentration after 5 hrs by luminescence assay; assay type: ADME, cell-based; settings: hepg2, 5 h
Sequence of Luciferin 4-monooxygenase (P08659 whole entry): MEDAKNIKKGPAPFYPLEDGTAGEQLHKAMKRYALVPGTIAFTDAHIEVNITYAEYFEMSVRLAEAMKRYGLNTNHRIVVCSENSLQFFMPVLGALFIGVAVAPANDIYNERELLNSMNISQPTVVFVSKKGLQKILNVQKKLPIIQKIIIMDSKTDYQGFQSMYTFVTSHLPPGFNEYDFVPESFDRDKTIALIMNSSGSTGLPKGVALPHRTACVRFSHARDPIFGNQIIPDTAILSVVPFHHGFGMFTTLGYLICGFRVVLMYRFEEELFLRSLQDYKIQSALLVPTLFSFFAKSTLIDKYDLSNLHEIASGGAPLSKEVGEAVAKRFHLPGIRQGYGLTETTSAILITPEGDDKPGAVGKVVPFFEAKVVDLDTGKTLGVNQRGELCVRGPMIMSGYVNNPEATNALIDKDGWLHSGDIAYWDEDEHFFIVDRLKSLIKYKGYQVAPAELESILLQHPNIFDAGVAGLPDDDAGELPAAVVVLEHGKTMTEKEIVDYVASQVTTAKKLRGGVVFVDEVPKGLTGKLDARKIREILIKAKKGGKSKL

| Structure (SMILES) | Activity [1] | fold change (FC) [1] | Activity [2] |
| --- | --- | --- | --- |
| COc1cccc(/C=C/C(=O)CC(=O)/C=C/c2cccc(OC)c2)c1 | Active | – | Non-Toxic |
| O=C(/C=C/c1ccc(Cl)cc1)CC(=O)/C=C/c1ccc(Cl)cc1 | inactive | – | Non-Toxic |
| O=C(/C=C/c1ccccc1Cl)/C=C/c1ccccc1Cl | Active | – | Non-Toxic |
| O=C(/C=C/c1cccc(O)c1)CC(=O)/C=C/c1cccc(O)c1 | Active | – | Non-Toxic |
| COc1cc(OC)c(OC)cc1/C=C/C(=O)/C=C/c1cc(OC)c(OC)cc1OC | – | 18.2 | Non-Toxic |

Further lines, with some results ahead:

| Activity [1] | fold change (FC) [1] | Structure (SMILES) | Activity [2] |
| --- | --- | --- | --- |
| Active | – | COc1cccc(/C=C2\CCC/C(=C\c3cccc(OC)c3)C2=O)c1 | Non-Toxic |
| Active | – | CN1C/C(=C\c2cccc(Br)c2)C(=O)/C(=C/c2cccc(Br)c2)C1 | Non-Toxic |
| inactive | – | COc1ccc(/C=C2\CCC/C(=C\c3ccc(OC)cc3)C2=O)cc1 | Non-Toxic |
